Experiments:
Assay type in all cases: cell-based
A375 = experiment: Intracellular GSH, GSH-Glo assay, A375 cells; conditions: Homo sapiens, 48 h, normalized to untreated control; for activity at 250 µM: A-375, 250 μM compound, read-out: Intracellular GSH level A375 250 μM; for activity at 500 µM: A-375, 500 μM compound, read-out: Intracellular GSH level A375 500 μM
Protocol: (§1) The cancer cell lines A172, A375, U87 and MCF7 were purchased from American Type Culture Collection (ATCC; Manassas, Va., USA). Cells were cultured in Dulbecco's Modified Eagle's Medium (DMEM) supplemented with 10% fetal bovine serum, 2% v/v L-glutamine, 3.2% v/v non-essential amino acids, antibiotics 2% v/v (penicillin-streptomycin), and 0.02% v/v Plasmocin at 37° C. and 5% CO2.
(§2) xCT expression of cancer cell lines was evaluated by western blotting from protein samples of cell lysates as described in Sleire et al., Oncogene 34: 5951-5959, 2015. Protein concentrations were determined by BCA assay (Thermo Fisher Scientific, USA) followed by SDS PAGE and immunoblotting using rabbit anti-xCT (Thermo Fisher Scientific) and rabbit anti-GAPDH (Abcam, Cambridge, UK) as a loading control. The compounds were dissolved in dimethylsulfoxide (DMSO) (Sigma Aldrich, Germany) and stock concentrations of 100 mM were stored at −20° C. in aliquots. Final concentrations were made in growth medium before adding to the cell monolayers.
(§3) The compounds were evaluated based on the measurement of intracellular Glutathione (GSH) which was performed by the GSH-Glo assay (Promega, Madison, WI, USA, cat #V6912) according to the manufacturer's recommended procedures. 5000 cells per well were seeded in a flat bottomed 96-well plate. After attachment to the well surface, cells were exposed to 250 μM and 500 μM of each compound for 48 h. After that, GSH-Glo reagent was added followed by short incubation and addition of luciferin detection reagent. Bioluminescence was measured using a luminometer (Victor 3 1420 multi-label counter, Perkins Elmer, Waltham, MA, USA). IC50 doses for the compounds SAS, DC10 and DC14 were determined in A172 glioma cells, using the GraphPad Prism v6 software (GraphPad Software, Inc. CA, USA). All measurements were normalized to the untreated control and were performed three times.

MCF7 = experiment: Intracellular GSH, GSH-Glo assay, MCF7 cells; conditions: Homo sapiens, 48 h, normalized to untreated control; for activity at 250 µM: 250 μM compound, read-out: Intracellular GSH level MCF7 250 μM; for activity at 500 µM: 500 μM compound, read-out: Intracellular GSH level MCF7 500 μM
Protocol: as §1, §2, §3

A172 glioma cells = experiment: Intracellular GSH, GSH-Glo assay, A172 cells; conditions: Homo sapiens, 48 h, normalized to untreated control; for activity at 250 µM: A 172, 250 μM compound, read-out: Intracellular GSH level A172 250 μM; for activity at 500 µM: A 172, 500 μM compound, read-out: Intracellular GSH level A172 500 μM
Protocol: as §1, §2, §3

U87 = experiment: Intracellular GSH, GSH-Glo assay, U87 cells; conditions: Homo sapiens, U-87 MG, 48 h, normalized to untreated control; for activity at 250 µM: 250 μM compound, read-out: Intracellular GSH level U87 250 μM; for activity at 500 µM: 500 μM compound, read-out: Intracellular GSH level U87 500 μM
Protocol: as §1, §2, §3

## Oc1ccc(/C=C/c2ccccc2)cc1-c1nnn[nH]1 [DC15, (E)-4-styryl-2-(1H-tetrazol-5-yl)phenol]
A375
  activity at 250 µM: 53.3%
  activity at 500 µM: 46.4%
MCF7
  activity at 250 µM: 75.8%
  activity at 500 µM: 32.6%
A172 glioma cells
  activity at 250 µM: 55.1%
  activity at 500 µM: 9.7%
U87
  activity at 250 µM: 104%
  activity at 500 µM: 50.4%

## Cc1cc(O)c(C(=O)O)c(C)c1-c1ccc2ccccc2c1 [DC20, 6-hydroxy-2,4-dimethyl-3-(naphthalen-2-yl)benzoic acid]
A375
  activity at 250 µM: 63.1%
  activity at 500 µM: 4.6%
MCF7
  activity at 250 µM: 40.5%
  activity at 500 µM: 9.7%
A172 glioma cells
  activity at 250 µM: 82.1%
  activity at 500 µM: 11.9%
U87
  activity at 250 µM: 61.1%
  activity at 500 µM: 6.1%

## O=C(O)c1cc(/C=C/c2ccc(S(=O)(=O)Nc3ccccc3)cc2)ccc1O [DC14, (E)-2-hydroxy-5-(4-(N-phenylsulfamoyl)styryl)benzoic acid]
A375
  activity at 250 µM: 4.5%
  activity at 500 µM: 2%
MCF7
  activity at 250 µM: 25.9%
  activity at 500 µM: 1.8%
A172 glioma cells
  activity at 250 µM: 23.1%
  activity at 500 µM: 2.4%
U87
  activity at 250 µM: 18%
  activity at 500 µM: 1.9%

## O=C(O)c1cc(/C=C/c2ccccc2)ccc1O [DC02, (E)-2-hydroxy-5-styrylbenzoic acid]
A375
  activity at 250 µM: 50.4%
  activity at 500 µM: 32%
MCF7
  activity at 250 µM: 47.4%
  activity at 500 µM: 15.9%
A172 glioma cells
  activity at 250 µM: 90.9%
  activity at 500 µM: 41%
U87
  activity at 250 µM: 82.2%
  activity at 500 µM: 66.9%

## O=C(O)c1cc(/C=C/c2cccc(-c3ccccc3)c2)ccc1O [DC18, (E)-5-(2-([1,1′-biphenyl]-3-yl)vinyl)-2-hydroxybenzoic acid]
A375
  activity at 250 µM: 53.7%
  activity at 500 µM: 3.4%
MCF7
  activity at 250 µM: 54.6%
  activity at 500 µM: 4.8%
A172 glioma cells
  activity at 250 µM: 74%
  activity at 500 µM: 3.7%
U87
  activity at 250 µM: 66.5%
  activity at 500 µM: 4.6%

## O=C(O)c1cc(/C=C/c2ccccc2-c2ccccc2)ccc1O [DC19, (E)-5-(2-([1,1′-biphenyl]-2-yl)vinyl)-2-hydroxybenzoic acid]
A375
  activity at 250 µM: 47.8%
  activity at 500 µM: 3.7%
MCF7
  activity at 250 µM: 51%
  activity at 500 µM: 4.3%
A172 glioma cells
  activity at 250 µM: 58.7%
  activity at 500 µM: 3.3%
U87
  activity at 250 µM: 64.6%
  activity at 500 µM: 5%

## CC(=O)Nc1ccc(/C=C/c2ccccc2)cc1C(=O)O [DC16, (E)-2-acetamido-5-styrylbenzoic acid]
A375
  activity at 250 µM: 34.5%
  activity at 500 µM: 26.4%
MCF7
  activity at 250 µM: 92.4%
  activity at 500 µM: 83.7%
A172 glioma cells
  activity at 250 µM: 67.3%
  activity at 500 µM: 51.7%
U87
  activity at 250 µM: 73.5%
  activity at 500 µM: 63.2%

## COc1ccc(C#Cc2ccccc2)cc1C(=O)O [DC04, 2-methoxy-5-(phenylethynyl)benzoic acid]
A375
  activity at 250 µM: 63.4%
  activity at 500 µM: 42.4%
MCF7
  activity at 250 µM: 91.4%
  activity at 500 µM: 68%
A172 glioma cells
  activity at 250 µM: 86.9%
  activity at 500 µM: 77.6%
U87
  activity at 250 µM: 80.6%
  activity at 500 µM: 88.6%

## COc1ccc(-c2ccc3ccccc3c2)cc1C(=O)O [DC05, 2-methoxy-5-(naphthalen-2-yl)benzoic acid]
A375
  activity at 250 µM: 47.6%
  activity at 500 µM: 37.9%
MCF7
  activity at 250 µM: 82.4%
  activity at 500 µM: 39%
A172 glioma cells
  activity at 250 µM: 75.6%
  activity at 500 µM: 57.7%
U87
  activity at 250 µM: 42.9%
  activity at 500 µM: 39.5%

Source: US12629382B2, “Therapy” (Vestlandets Innovasjonsselskap AS, priority 2019, dated 2026)
